In patent publication US7902384B2, “Estrogenic-active compounds and application thereof” (National Taiwan University, priority 2008, dated 2011):
Several values for one entry are separate records, joined by “and”; a condition that tells them apart may be missing. Equal entries are not always repeated.

Experiments:
GAL4-hERα [1] = target: T1, GAL4-hERα (Homo sapiens, UniProt P03372); assay: Estrogenic activity assay with co-addition of 1 nM 17β-estradiol (antagonism or synergistic agonism), GAL4-hERα reporter in CHO-k1 cells; details: co-added with 1 nM 17β-estradiol, vs single addition of estrogen, p<0.05
T1 sequence (P03372 311-547 limits assumed): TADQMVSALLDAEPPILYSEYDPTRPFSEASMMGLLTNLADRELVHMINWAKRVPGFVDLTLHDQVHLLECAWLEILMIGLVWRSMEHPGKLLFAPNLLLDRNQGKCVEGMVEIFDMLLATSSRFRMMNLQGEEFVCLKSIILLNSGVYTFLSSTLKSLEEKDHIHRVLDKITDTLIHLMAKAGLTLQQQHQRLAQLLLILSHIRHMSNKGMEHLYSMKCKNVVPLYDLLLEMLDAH
Source text: (§2) Plasmid pBKCMV containing GAL4hERα (or ERβ) ligand binding domain (LBD) chimeric receptors and plasmid containing (UAS)4-alkaline phosphatase (ALP) reporter gene were co-transfected into Chinese hamster cells (CHO-k1). Compounds with estrogenic activity would interact with estrogen-specific ER to induce the binding of GAL4 and upstream activation sequence (UAS) specifically to initiate the expression of ALP gene. Therefore, the ALP activity can be used to determine whether the samples to be assayed have the estrogenic activity.
(§3) Cells in high confluence were plated onto 96-well culture plate the day before transfection. The plate was then washed to remove the serum during the day of transfection, followed by addition of two plasmid DNA, GAL4-hERα and (UAS)4-ALP in the ratio of 5:1, or GAL4-hERβ and (UAS)4-ALP in the ratio of 4:1, together with Lipofectamine™ 2000 transfection agent and culture medium to form DNA-liposome complex for 5 h.
(§4) The sample to be assayed was added into the medium of transfected cells and cultivated for 2 days.

GAL4-hERβ [2] = target: T2, GAL4-hERβ (Homo sapiens, UniProt Q92731); assay: Estrogenic activity assay: GAL4-hERβ LBD / (UAS)4-ALP reporter in transfected CHO-k1 cells, single addition of sample; type: cell-based; set-up: expressed in transfected cells; host or cells: CHO-k1 (Chinese hamster cells); details: for EC50: read-out: EC50 for ERβ (converted); for ERβ versus ERα selectivity of activation: comparison of ERα and ERβ reporter activation
T2 sequence (Q92731 264-498 limits assumed): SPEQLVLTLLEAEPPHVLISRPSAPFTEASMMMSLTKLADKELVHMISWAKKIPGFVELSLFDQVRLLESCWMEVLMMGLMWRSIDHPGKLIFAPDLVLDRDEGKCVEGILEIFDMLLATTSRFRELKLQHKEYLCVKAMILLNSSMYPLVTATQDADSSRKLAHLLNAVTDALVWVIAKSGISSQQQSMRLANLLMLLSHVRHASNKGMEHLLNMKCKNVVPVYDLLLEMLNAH
Source text: (§1) First, a method for assessing the estrogenic activity in the field samples was established. This method comprises: preparing a cell line transfected with plasmids which can screen estrogenic activity substances. […] The reporter gene in the plasmid was expressed when the sample to be assayed contains estrogenic activity. Among them, the samples to be assayed in the examples of the invention include Loliolide, (4S,6S)-4-Hydroxy-6-nonadecyl-tetrahydro-pyran-2-one, (4R,6S)-4-Hydroxy-6-nonadecyl-tetrahydro-pyran-2-one. […] The details of establishing the assessing method are described as follows: […]

GAL4-hERβ [3] = target: T2, GAL4-hERβ; assay: Estrogenic activity assay with co-addition of 1 nM 17β-estradiol (antagonism or synergistic agonism), GAL4-hERβ reporter in CHO-k1 cells; details: co-added with 1 nM 17β-estradiol, vs single addition of estrogen, p<0.05
Source text: as §2, §3, §4

GAL4-hERα [4] = target: T1, GAL4-hERα; assay: Estrogenic activity assay: GAL4-hERα LBD / (UAS)4-ALP reporter in transfected CHO-k1 cells, single addition of sample; type: cell-based; set-up: expressed in transfected cells; host or cells: CHO-k1 (Chinese hamster cells); details: for EC50: read-out: EC50 for ERα (converted)
Source text: as §1

[5] = ALP reporter, CHO-k1, single addition

Row | concentration at which activation of ERα due to estrogen was significantly decreased (GAL4-hERα [1]) | concentration at which maximal activation of ERβ activity was achieved (GAL4-hERβ [2]; [5]) [µg/mL] | concentration at which maximal activation of the estrogenic activity was achieved (ERβ) (GAL4-hERβ [2]; [5]) [µM] | EC50 (GAL4-hERβ [2]; [5]) | ERβ versus ERα selectivity of activation (GAL4-hERβ [2]) | concentration at which activation of ERβ due to estrogen was significantly decreased (GAL4-hERβ [3]) | concentration at which maximal activation of ERα activity was achieved (GAL4-hERα [4]) [µg/mL] | concentration at which maximal activation of the estrogenic activity was achieved (ERα) (GAL4-hERα [4]) [µM] | EC50 (GAL4-hERα [4]) [µM] | Structure (SMILES)
1 | 10.1 µM | 20 | 102.0 | 17.9 µM and 18 µM | better activation efficiency in ERβ | 204 µM | 20 | 102.0 | 54.2 | CC1(C)C[C@H](O)C[C@@]2(C)OC(=O)C=C12 [Loliolide]
2 | 1 µg/mL | 10 | – | 4.68 µM | better activation efficiency in ERβ | 2 µg/mL | 10 | – | 16.2 | CCCCCCCCCCCCCCCCCCC[C@H]1C[C@H](O)CC(=O)O1 [(4S,6S)-4-Hydroxy-6-nonadecyl-tetrahydro-pyran-2-one]
3 | 2 µg/mL | 10 | – | 8.94 µM | better activation efficiency in ERβ | 2 µg/mL | 20 | – | – | CCCCCCCCCCCCCCCCCCC[C@H]1C[C@@H](O)CC(=O)O1 [(4R,6S)-4-Hydroxy-6-nonadecyl-tetrahydro-pyran-2-one]
